Experimental data published in US9604931B2, “Nuclear receptor binding agents” (GTx, Inc., priority 2007, dated 2017).

Assays:
[1] = tested on: Rat Aortic Smooth Muscle Cells (RASMC); assay: RASMC cell proliferation assay (WST-1); type: cell-based; conditions: for EC50: Rattus norvegicus, inhibitory effect sigmoid Emax model, read-out: EC50 for inhibition of RASMC proliferation; for Proliferation of RASMC: concentration between 10-30 μM
Protocol: EC50 values were calculated using WinNonLin 5.0.1 using the inhibitory effect sigmoid Emax model.

rat aorta rings = assay: Rat aortic ring relaxation; conditions: 10^-6 PE constriction; for EC50: Rattus norvegicus
Description: Experimental protocol. Equipment used in these studies included a 4-tissue bath system with reservoirs and circulators (RadnotiGlass Technology, Monrovia, Calif.), DSI/Ponemah tissue force analyzer 7700 (Valley View, Ohio), and iWorx/CB Sciencesforce transducers FT-302. The 250 g rats were anesthetized with isoflurane to produce deep anesthesia. The chest of the rat was opened, and about 3 cm length of aorta was removed and placed in a Petri dish containing room temperature Krebs salt solution (KSS, in mM: 120 NaCl, 5 KCl, 1.2 MgSO4.7H20, 2.5 CaCl2.2H2O, 1 KH2PO4, 25 NaHCO3, and 11 glucose). Fat and connective tissue were removed from the aorta taking care not to stretch the vessel. The aorta was then divided into 3-mm-wide rings. Triangular wire holders were inserted through the lumen of the vessel and connected to the force transducer and tissue holder rod in the vessel bath.
Analog-to-digital conversions of force waveforms were accomplished with a DSI/Ponemah tissue force analyzer 7700. The converted data were automatically analyzed with Ponemah Physiology-Smooth Muscle software. All data are summarized as means±standard error. Differences between means were assessed by a conventional ANOVA. This was followed by Student's test. P<0.05 was considered to be statistically significant.
The tension on the rings was adjusted to 1.0 g passive force using the tension adjustment dial for each transducer and allowed to equilibrate for 60 min in the bath with a 95% O2-5% CO2 gas mixture. The rings were washed with fresh buffer every 20 min. Passive force was readjusted to 1.0 g as needed during this period. When rings were stable at 1.0 g of passive force, the baseline was calculated.
Phenylephrine (PE) at a final concentration of […] was added to the bath to contract the ring, and force was allowed to stabilize for 10 min. Then acetylcholine (ACH) at a final concentration of 10^−5 M was added to the precontracted rings to test for endothelial integrity […]. After the initial test for vessel viability and endothelial integrity, the rings were washed three times for 10 min with buffer, allowing it to equilibrate to active force stabilized at 1 g.
Cumulative concentration-response curves to NRBAs were created by increasing the NRBAs concentration in the tissue bath by successive addition of appropriate dilutions of stock solutions to achieve final bath concentrations of 300 nM to 0.15 mM NRBAs.
Table 10 summarizes EC50 values and maximal % decrease of the 10^−6 PE constriction of the aortic ring for individual NRBAs tested

[2] = target: ERα ligand binding domain (Homo sapiens, UniProt P03372); assay: Competitive [3H]-estradiol binding assay, ER-α (Example 21)
ERα ligand binding domain, sequence (P03372 whole entry, looked up, the tested form may be a part): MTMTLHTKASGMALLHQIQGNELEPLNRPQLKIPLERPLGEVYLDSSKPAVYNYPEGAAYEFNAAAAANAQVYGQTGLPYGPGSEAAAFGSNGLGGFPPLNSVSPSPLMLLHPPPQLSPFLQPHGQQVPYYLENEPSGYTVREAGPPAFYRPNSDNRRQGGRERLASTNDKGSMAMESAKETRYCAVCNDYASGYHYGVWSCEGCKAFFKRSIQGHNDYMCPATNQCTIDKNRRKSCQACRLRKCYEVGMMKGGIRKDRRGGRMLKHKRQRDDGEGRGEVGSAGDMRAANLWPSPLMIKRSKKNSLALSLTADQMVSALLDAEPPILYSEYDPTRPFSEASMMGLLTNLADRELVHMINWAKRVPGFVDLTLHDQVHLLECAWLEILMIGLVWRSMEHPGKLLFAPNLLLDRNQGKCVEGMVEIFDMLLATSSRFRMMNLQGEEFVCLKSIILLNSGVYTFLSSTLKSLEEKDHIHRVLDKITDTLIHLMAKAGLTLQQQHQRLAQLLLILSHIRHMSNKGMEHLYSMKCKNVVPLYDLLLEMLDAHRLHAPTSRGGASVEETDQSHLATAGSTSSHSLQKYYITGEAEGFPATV
Protocol: ER binding affinity was determined via one of the following methods:
Briefly, the incubation mixture was filtered through a high affinity protein binding filter, and washed several times to remove any unbound radioactivity. The filter plate was air dried and sealed on the bottom.
Nonspecific binding was subtracted from total binding to yield specific binding.

PPAR-γ = PPAR-γ transactivation (PPRE-LUC) in HEK-293 cells co-transfected with ER-β; type: cell-based
Protocol: FIG. 12 depicts the effect of ER-β ligand on PPAR-γ function through ligand binding domain (LBD). (A). HEK-293 cells were transfected with 0.25 μg PPRE-LUC, 5 ng CMV-renilla LUC and the indicated receptors (PPAR-γ and ER-β for the left panel and PPAR-α and ER-β for the right panel). The cells were treated 24 hrs after transfection with the indicated ligands and harvested 48 hrs after transfection and firefly luciferase activity was measured and normalized to renilla luciferase. (B). H475 in ER-β LBD is important for its function. H475 in ER-β LBD was mutated to alanine (A) using a site directed mutagenesis kit. Transactivation assay was performed as described in panel A in HEK-293 cells with a titration of ER-β ligands in wild type (WT) or ER-β H475A. (C). […] The cells were treated 24 hrs after transfection with the indicated ligands and harvested 48 hrs after transfection and firefly luciferase activity was measured and normalized to renilla luciferase. […] The cells were treated 24 hrs after transfection with the indicated ligands and harvested 48 hrs after transfection and firefly luciferase activity was measured and normalized to renilla luciferase. […] The cells were treated 24 hrs after transfection with the indicated ligands and harvested 48 hrs after transfection and firefly luciferase activity was measured and normalized to renilla luciferase. […]

ER-α = ER-α (Rattus norvegicus (Rat), UniProt P06211); type: cell-based; conditions: for Estradiol activity at 100 nM of NRBA, ER-α: 100 nM compound compared to 1 nM estradiol
How it was run: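 COS or 293 cells in phenol red-free medium with charcoal-stripped FBS, transfected with a 2×ERE firefly luciferase reporter, CMV-Renilla control and rat-cloned receptor. Compounds, estrogen or DHT added 24 h post transfection, alone or combined; firefly and Renilla luciferase read 48 h after transfection.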

ER-β = ER-β (Rattus norvegicus (Rat), UniProt Q62986); assay: ER-β transactivation (ERE-LUC) in COS or 293 cells; type: cell-based; conditions: for activation at 0.1 µM: HEK293, 48 h, read-out: Estradiol activity at 100 nM of NRBA, ER-β, 100 nM compound compared to 1 nM estradiol
ER-β, sequence (Q62986 whole entry): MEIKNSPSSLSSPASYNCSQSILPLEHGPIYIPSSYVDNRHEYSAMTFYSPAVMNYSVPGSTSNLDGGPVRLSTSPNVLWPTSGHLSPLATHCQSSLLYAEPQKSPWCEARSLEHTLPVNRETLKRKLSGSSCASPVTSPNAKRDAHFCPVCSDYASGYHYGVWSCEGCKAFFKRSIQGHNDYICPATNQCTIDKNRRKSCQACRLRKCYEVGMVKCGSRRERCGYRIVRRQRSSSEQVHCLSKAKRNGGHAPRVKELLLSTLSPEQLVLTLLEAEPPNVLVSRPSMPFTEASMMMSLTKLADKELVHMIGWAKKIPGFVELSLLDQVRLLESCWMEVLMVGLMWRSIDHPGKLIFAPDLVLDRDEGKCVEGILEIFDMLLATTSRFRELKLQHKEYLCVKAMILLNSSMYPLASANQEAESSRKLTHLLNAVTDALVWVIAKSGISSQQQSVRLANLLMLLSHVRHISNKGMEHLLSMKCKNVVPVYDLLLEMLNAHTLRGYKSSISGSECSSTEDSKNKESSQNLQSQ
Protocol: COS or 293 cells were plated in DME without phenol red+10% cs FBS at 90,000 cells per well in 24 well plates, and were transfected with 0.25 μg of the vector “ERE-LUC”, where a firefly luciferase gene was driven by two estrogen responsive elements and 0.02 μg of the control CMV-LUC, Renilla where a luciferase gene was driven by a CMV promoter. […] All the receptors were cloned from rat tissue into the PCR3.1 vector backbone. Twenty four hours post transfection, cells were treated with compounds of this invention, estrogen, DHT, and other NRBAs or combinations thereof. Cells were harvested 48 hrs after transfection, and assayed for firefly and Renilla luciferase activity.

O=c1c2c(O)cc(O)cc2c(Br)cn1-c1ccc(O)cc1 [12u, 4-bromo-6,8-dihydroxy-2-(4-hydroxyphenyl)isoquinolin-1(2H)-one]
EC50 [1]: 9.56 µM | Proliferation of RASMC [1]: inhibited the proliferation of RASMC in a dose-dependent manner | Mean of Maximal % Decrease of the PE constriction of the aortic ring (rat aorta rings): 50.97% | EC50 (rat aorta rings): 30 µM | inhibition at 0.1 µM ([2]; 100 nM of compound, read-out: Percent Inhibition of [3H]-Estradiol Binding to ER-α): 61.3% | Troglitazone-induced PPAR-γ activity (PPAR-γ): partially inhibited | Classification as ER-α agonist (ER-α): ER-α agonists | Estradiol activity at 100 nM of NRBA, ER-α (ER-α): 62% | ER-β agonist activity (ER-β): ER-β agonist activity | activation at 0.1 µM (ER-β): 85%

N#Cc1cn(-c2ccc(O)cc2)c(=O)c2c(O)cc(O)cc12 [14m, 6,8-dihydroxy-2-(4-hydroxyphenyl)-1-oxo-1,2-dihydroisoquinoline-4-carbonitrile]
EC50 [1]: 7.89 µM | Proliferation of RASMC [1]: inhibited the proliferation of RASMC in a dose-dependent manner | Mean of Maximal % Decrease of the PE constriction of the aortic ring (rat aorta rings): 94.49% | EC50 (rat aorta rings): 7.64 µM | Ki ([2]; read-out: ER-α binding constant (Ki)): 0.094 µM | Troglitazone-induced PPAR-γ activity (PPAR-γ): partially inhibited | Estradiol activity at 100 nM of NRBA, ER-α (ER-α): 49% | activation at 0.1 µM (ER-β): 74.5%
